# Measurements taken from US20050245600A1, “Novel antimalarial agent” (Osaka Bioscience Institute, priority 2002, published 2005).
# Where two headings read alike, the source gives them in different places.
# Assays:
# [1] = system: FCR3 strain (resistant to cycloguanyl) of Plasmodium falciparum; assay: Plasmodium falciparum growth inhibition (Giemsa smear count, 48 hours); assay type: cell-based; details: for IC50: Table 3, read-out: P. falciparum (IC50, μg/mL)
# Procedure: FCR3 strain (resistant to cycloguanyl) of Plasmodium falciparum isolated in Gambia was used in the experiment to assess anti-malarial activity. Plasmodium falciparum synchronized to a ring phase by sorbitol treatment was injected in 50 μL 96 well plate. The hematocrit value of the culture liquid is 2% and the infection ratio was 0.55%. A substance to be tested was dissolved in DMSO and diluted with medium to an appropriate concentration before 50 μL of a test compound solution was added to the above 96 well plate to the total volume of 100 μL. The final concentration of DMSO added was 1%. Subsequently, after incubation was effected at 37° C. for 48 hours, a sumea film prepared on a slide glass was stained with Giemsa solution. The number of infected erythrocyte among 1000 erythrocytes was counted under an optical microscope. Percent inhibition of malaria parasite growth was calculated for percent infection obtained under the presence of DMSO only and that under the presence of the compound to be tested. Quinine was used as a positive control.
# [2] = system: human cancer cell KB3-1; assay: KB3-1 cell growth inhibition (MTT) to examine toxicity; assay type: cell-based; details: for IC50: Table 3, read-out: KB3-1 (IC50, μg/mL); for Selective toxicity: IC50 (KB3-1)/IC50 (P. falciparum)
# Procedure: To 100 μL (2×10^4/ml) of floating liquid of KB3-1 cells, 100 μL of test compound containing a liquid which was prepared by dissolving a test compound in DMSO and diluted to an appropriate concentration (final concentration of DMSO: 1%) was added. The mixture was incubated under 5% CO2 at 37° C. After 72 hours incubation, 25 μL of MTT reagent was added and incubation was effected for 3 hours before only medium was aspiratedly removed. To the medium 200 μL of DMSO was added, the resulting MTT folmazan was extracted and the amount of the dye was quantitatively measured by a calorimetric method (540 nm). The number of survival cell was counted from the amount of formed dye, and percent growth inhibition was determined to assess the toxic activity. Mitomycin C was used as a positive control.
# [3] = system: Plasmodium berghei (NK65 line); assay: In vivo antimalarial activity, four days inhibition effect in infected mouse; details: ICR mouse; for Inhibition (%) / Averaged parasite blood (%): fourth day; for Averaged parasite blood (%): average ± SD of 5 mice
# Procedure: Four weeks old male mouse was bred at 25° C. under the condition of 12 hours light and 12 hours dark, and used in the assay.
# Blood was corrected with a syringe from the heart of a donor mouse with 15 % of parasitaemia. To this blood, trisodium citrate aqueous solution was added in one seventh by volume to prevent coagulation of blood. The resulting solution was diluted with 0.9% aqueous sodium chloride solution so that the final concentration of infected blood cells is 1×10^7 per 0.2 ml. […]
# To mouse (one group: 5), 0.2 ml of the infected erythrocytes was administered through tail vein. After 2 hours, the CMC solution (0.2 ml) of the respective concentration prepared above was orally administered. Starting with this time as 0 day, the solution was administered every day till a third day and infection ratio was examined on a fourth day. The infection ratio was determined by collecting blood from mouse tail, preparing smear, and counting infected erythrocytes using a microscope. The infection ratio of control mouse (5 infected mice administered only by the 0.5% CMC solution) was about 28% on the fourth day.
# Percent growth inhibition of parasites by test compound was calculated from the following formula: Percent growth inhibition of parasites=(1−averaged infection ratio of mice treated with test compound/averaged infection ratio of control mice)×100
# Life prolonging effect by test compound (T/C) was calculated from the following equation. Life Prolonging Effect (T/C)=averaged number of subsistence days of mouse treated by test compound/averaged number of subsistence days of control mouse
# [4] = 25 mg/kg oral, day 0 to third day
# [5] = 50 mg/kg oral, day 0 to third day
# [6] = 100 mg/kg oral, day 0 to third day
# [7] = 200 mg/kg oral, day 0 to third day
smiles,measurement,setting,value
"O=C1C[C@@H](c2ccc(O)cc2)Oc2c1c(O)cc(O)c2[C@H]1C(=O)c2c(O)cc(O)cc2O[C@@H]1c1ccc(O)cc1 [GK-1, 2S,3R,2′S-5,7,5′,7′-tetrahydroxy-2,2′-bis-(4-hydroxyphenyl)-2,3,2′,3′-tetrahydoro-[3,8′]bichromenyl-4,4′-dione]",IC50,[1],0.35 µg/mL
same,IC50,"[2]; Homo sapiens, KB 3-1",27 µg/mL
same,Selective toxicity,[2],77
"O=C1c2c(O)cc(O)cc2O[C@H](c2ccc(O)cc2)[C@H]1c1c(O)cc(O)c2c1O[C@H](c1ccc(O)cc1)[C@@H](O)C2=O [GK-2, 2S,3R,2′S,3′R-5,7,3′,5′,7′-pentahydroxy-2,2′-bis-(4-hydroxyphenyl)-2,3,2′,3′-tetrahydro-[3,8′]bichromenyl-4,4′-dione]",inhibition at 0.5 µg/mL,"[1]; Table 2, 0.5 μg/mL, read-out: Inhibition of P. falciparum %",70%
same,inhibition at 5 µg/mL,"[1]; Table 2, 5 μg/mL, read-out: Inhibition of P. falciparum %",65%
same,IC50,[1],0.09 µg/mL
same,inhibition at 5 µg/mL,"[2]; Homo sapiens, KB 3-1, Table 2, 5 μg/mL",22%
same,inhibition at 50 µg/mL,"[2]; Homo sapiens, KB 3-1, Table 2, 50 μg/mL",10%
same,IC50,"[2]; Homo sapiens, KB 3-1",> 100 µg/mL
same,Selective toxicity,[2],>1100
same,Averaged subsistence days,[3]; [4],9.5 ± 1.7 days
same,T/C (life prolonging effect),[3]; [4],119
same,Inhibition (%),[3]; [4],40%
same,Averaged parasite blood (%),[3]; [4],17.3 ± 3.4%
same,Averaged subsistence days,[3]; [5],10.0 ± 0.0 days
same,T/C (life prolonging effect),[3]; [5],125
same,Inhibition (%),[3]; [5],43%
same,Averaged parasite blood (%),[3]; [5],16.6 ± 2.4%
same,Averaged subsistence days,[3]; [6],10.0 ± 0.0 days
same,T/C (life prolonging effect),[3]; [6],125
same,Inhibition (%),[3]; [6],52%
same,Averaged parasite blood (%),[3]; [6],13.9 ± 2.4%
same,Averaged subsistence days,[3]; [7],11.0 ± 0.7 days
same,T/C (life prolonging effect),[3]; [7],134
same,Inhibition (%),[3]; [7],60%
same,Averaged parasite blood (%),[3]; [7],11.5 ± 1.2%
"O=C1c2c(O)cc(O)cc2O[C@H](c2ccc(O)cc2)[C@H]1c1c(O)cc(O)c2c1O[C@H](c1ccc(O)c(O)c1)[C@@H](O)C2=O [GK-3, 2S,3R,2′S,3′R-2′-(3,4-dihydroxyphenyl)-5,7,3′,5′,7′-pentahydroxy-2-(4-hydroxyphenyl)-2,3,2′,3′-tetrahydro-[3,8′]bichromenyl-4,4′-dione]",IC50,[1],0.12 µg/mL
same,IC50,"[2]; Homo sapiens, KB 3-1",> 100 µg/mL
same,Selective toxicity,[2],>830
"O=C1c2c(O)cc(O)c([C@@H]3C(=O)c4c(O)cc(O)cc4O[C@H]3c3ccc(O)cc3)c2O[C@H](c2ccc(O)cc2)[C@H]1O [GK-4, 2R,3S,2′S,3′R-5,7,3′,5′,7′-pentahydroxy-2,2′-bis-(4-hydroxyphenyl)-2,3,2′,3′-tetrahydro-[3,8′]bichromenyl-4,4′-dione]",IC50,[1],1.1 µg/mL
same,IC50,"[2]; Homo sapiens, KB 3-1",> 100 µg/mL
same,Selective toxicity,[2],>91
"C[C@@H]1CC[C@H]2[C@@H](C)C(=O)O[C@@H]3O[C@@]4(C)CC[C@@H]1[C@]32OO4 [artemisinin, reference compound]",Averaged subsistence days,[3]; 15 mg/kg,10.3 ± 2.3 days
same,T/C (life prolonging effect),[3]; 15 mg/kg,129
same,Inhibition (%),[3]; 15 mg/kg,54%
same,Averaged parasite blood (%),[3]; 15 mg/kg,13.3 ± 1.6%
"C=C[C@H]1C[N@@]2CC[C@H]1C[C@H]2[C@H](O)c1ccnc2ccc(OC)cc12 [quinine, reference compound]",inhibition at 0.033 µg/mL,"[1]; Table 1 control, 33 ng/mL, read-out: P. falciparum Growth Inhibition (%)",73%
same,inhibition at 0.1 µg/mL,"[1]; Table 1 control, 100 ng/mL, read-out: P. falciparum Growth Inhibition (%)",90%
same,inhibition at 0.033 µg/mL,"[1]; Table 2 control, 0.033 μg/mL, read-out: Inhibition of P. falciparum %",62%
same,inhibition at 0.1 µg/mL,"[1]; Table 2 control, 0.1 μg/mL, read-out: Inhibition of P. falciparum %",90%
same,inhibition at 0.033 µg/mL,"[1]; Table 3 control, 0.033 μg/mL, read-out: P. falciparum inhibition",36%
same,inhibition at 0.1 µg/mL,"[1]; Table 3 control, 0.1 μg/mL, read-out: P. falciparum inhibition",82%
